Patent US11939362B2, “Light-inducible protein aggregation system for modeling proteinopathies and neurodegenerative disorders” (UNIVERSITÉ LAVAL, priority 2018, dated 2024)

Experiments:
[1] = target: T1, LIPA-Empty aggregates (Arabidopsis thaliana, UniProt Q96524, E490G); assay: Stability/dissociation of LIPA-Empty inclusions after light stimulation (proportion of mCherry-positive cells with inclusions); format: cell-based, human; settings: HEK-293T cells overexpressing LIPA-Empty, 12 h pre-exposure to blue light, FIG. 17, n=5
T1 construct: expressed in transfected cells; host or cells: HEK-293T
Procedure: HEK-293T cells were seeded on 0.1% gelatin-coated glass coverslips in 24-well plates at a density of 10^4 cells per well (50% confluence) and transiently transfected, 24 h later, with 0.5 μg of LIPA-Empty, 0.6 μg LIPA-α-syn, and 1 μg LIPA-α-syn^ΔNAC per 4 wells, to obtain similar protein expression levels in all conditions. 24 h post-transfection, cells were exposed to blue light (λ=456 nm) using UHP-T-DI-LED series Ultra High-Power LEDs (Prizmatix), at an intensity of 0.8 mW/cm^2, as measured using LPM-100 light power meter (Amuza). […]
(§1) To evaluate the number of mCherry-positive cells with aggregates, a total of 8-10 images per condition were collected using a fluorescence microscope (Nikon Eclipse 80i; 20× objective) and a total of 220-250 cells were quantified by two experimenters, in a blind manner, using ImageJ.
The stability of LIPA-α-syn inclusions in the absence of light stimulation was evaluated by assessing the proportion of mCherry-positive cells having inclusions. […]
The impact of treatment with potent small molecule inhibitors of α-syn aggregation, namely baicalein and myrecitin (Masuda et al., 2006; Zhu et al., 2004), on the stability of LIPA-α-syn inclusions was next evaluated. […]

[2] = test system: LIPA-α-syn aggregates; assay: Stability of LIPA-α-syn inclusions after light stimulation (proportion of mCherry-positive cells with inclusions); format: cell-based, human; settings: for reduction in the number of cells exhibiting stable LIPA-α-syn inclusions / effect on the proportion of cells with mCherry inclusions: HEK-293T cells overexpressing LIPA-α-syn; for reduction in the number of cells exhibiting stable LIPA-α-syn inclusions: 12 h pre-exposure to blue light, treatment with small molecule inhibitor, FIG. 16, n=5; for effect on the proportion of cells with mCherry inclusions: treatment with inactive small molecules, FIG. 18, n=5
Procedure: HEK-293T cells were seeded on 0.1% gelatin-coated glass coverslips in 24-well plates at a density of 10^4 cells per well (50% confluence) and transiently transfected, 24 h later, with 0.5 μg of LIPA-Empty, 0.6 μg LIPA-α-syn, and 1 μg LIPA-α-syn^ΔNAC per 4 wells, to obtain similar protein expression levels in all conditions. 24 h post-transfection, cells were exposed to blue light (λ=456 nm) using UHP-T-DI-LED series Ultra High-Power LEDs (Prizmatix), at an intensity of 0.8 mW/cm^2, as measured using LPM-100 light power meter (Amuza). Cells were collected at different time points and fixed in 4% paraformaldehyde for 15 min at room temperature (RT), then washed three times (5 min) with PBS and permeabilized with PBS containing 0.25% Triton X-100, for 30 min at RT. Cells were incubated in blocking buffer solution (PBS containing 5% BSA and 0.1% Triton X-100), for 1 h at RT. Coverslips were incubated with primary antibodies (see Table 1) diluted in blocking buffer solution for 2 h at RT. Coverslips were washed three times in blocking buffer solution (10 min) and appropriate Alexa Fluor® secondary antibodies (Life Technologies, see Table 1) were applied for 1 h at RT. Coverslips were washed twice with PBS (10 min) and counterstained with the fluorescent nuclear stain […] 4,6-diamidino-2-phenylindole (DAPI) (1:5000) for 5 min. Coverslips were then washed twice with PBS (10 min), mounted on Prolong® Gold Antifade (Molecular Probes), and imaged using a Zeiss LSM800 confocal microscope. For thioflavin S (ThS) staining, fixed and permeabilized cells were incubated with 0.05% ThS for 15 min, washed three times with 70% ethanol for 10 min, and then cells were directly counterstained with DAPI. All immunocytochemistry experiments were made with gentle rocking and protected from light.
as §1
The stability of LIPA-α-syn inclusions in the absence of light stimulation was evaluated by assessing the proportion of mCherry-positive cells having inclusions. LIPA aggregates were allowed to form over a 12 h period under light stimulation and cells were collected at different time points up to 48 h post-illumination (FIG. 14).
The impact of treatment with potent small molecule inhibitors of α-syn aggregation, namely baicalein and myrecitin (Masuda et al., 2006; Zhu et al., 2004), on the stability of LIPA-α-syn inclusions was next evaluated. […] Treatment with baicalein or myrecitin had no effect on LIPA-Empty dissociation, confirming the specificity of these inhibitors (FIG. 17).
Previous studies have reported that both β-synuclein (β-syn) and mouse α-syn (ma-syn) overexpression inhibit human α-syn aggregation in cell culture and animal models. To test the impact of these two proteins on LIPA-α-syn inclusion formation, LIPA-α-syn was overexpressed with β-syn or ma-syn in HEK-293T cells, then transiently exposed to blue light for 12 h.

T1 sequence (Q96524 1-498 E490G): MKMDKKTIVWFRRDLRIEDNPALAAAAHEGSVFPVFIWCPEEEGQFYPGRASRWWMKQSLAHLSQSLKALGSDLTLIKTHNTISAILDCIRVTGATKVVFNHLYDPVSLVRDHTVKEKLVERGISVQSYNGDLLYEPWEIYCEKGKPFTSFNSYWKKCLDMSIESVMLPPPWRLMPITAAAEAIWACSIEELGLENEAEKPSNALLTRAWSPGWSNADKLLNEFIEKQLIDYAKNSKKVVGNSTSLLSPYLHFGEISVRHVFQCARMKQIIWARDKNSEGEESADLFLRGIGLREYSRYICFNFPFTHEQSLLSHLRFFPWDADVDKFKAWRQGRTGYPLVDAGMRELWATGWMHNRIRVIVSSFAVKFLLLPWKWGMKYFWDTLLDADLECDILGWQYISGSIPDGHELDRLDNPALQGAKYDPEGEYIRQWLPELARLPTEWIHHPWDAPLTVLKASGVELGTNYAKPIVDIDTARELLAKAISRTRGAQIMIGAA

| Compound | effect on LIPA-Empty dissociation [1] | reduction in the number of cells exhibiting stable LIPA-α-syn inclusions [2] | effect on the proportion of cells with mCherry inclusions [2] | reduction of the proportion of cells exhibiting mCherry aggregates (LIPA-α-syn inclusions) ([2]; co-overexpression with LIPA-α-syn in HEK-293T cells, blue light 12 h, post-stimulation analysis, FIG. 19 and 21, n=5) |
| --- | --- | --- | --- | --- |
| O=c1cc(-c2ccccc2)oc2cc(O)c(O)c(O)c12 [baicalein] | no effect | 50% |  |  |
| O=c1c(-c2ccc(O)cc2)coc2cc(O)ccc12 [daidzein] |  |  | did not affect |  |
| O=c1c(O)c(-c2cc(O)c(O)c(O)c2)oc2cc(O)cc(O)c12 [myrecitin] | no effect | 50% |  |  |
| O=C1C[C@@H](c2ccc(O)cc2)Oc2cc(O)cc(O)c21 [naringenin] |  |  | did not affect |  |
| β-syn: β-synuclein overexpressed in cells; reported to inhibit human α-syn aggregation |  |  |  | significant reduction |
